Measured values reported in the CheMixHub viscosity set.

Test: xn = mol fraction of the nth substance listed

CCOCCO + Cc1cccc(C)c1
viscosity [mPa·s], 101 kPa
Conditions | 298.15 K | 308.15 K
x1 = 0.0531 | 0.608 | 0.521
x1 = 0.1513 | 0.663 | 0.566
x1 = 0.2482 | 0.727 | 0.618
x1 = 0.3528 | 0.809 | 0.682
x1 = 0.4512 | 0.9 | 0.752
x1 = 0.5053 | 0.957 | 0.795
x1 = 0.5473 | 1.006 | 0.831
x1 = 0.6494 | 1.14 | 0.928
x1 = 0.751 | 1.3 | 1.04
x1 = 0.8492 | 1.487 | 1.168
x1 = 0.9554 | 1.731 | 1.33

CC(C)CCO + OCCO
viscosity [mPa·s], 100 kPa
Conditions | x1 = 0.0538 | x1 = 0.1127 | x1 = 0.1769 | x1 = 0.2492 | x1 = 0.3333 | x1 = 0.4312 | x1 = 0.5385 | x1 = 0.6667 | x1 = 0.8167
298.15 K | 17.29 | 16.59 | 15.84 | 14.92 | 13.82 | 12.46 | 10.93 | 8.999 | 6.622
303.15 K | 13.53 | 13.1 | 12.52 | 11.8 | 10.97 | 9.889 | 8.629 | 7.087 | 5.243
308.15 K | 11.48 | 11.11 | 10.72 | 10.22 | 9.549 | 8.689 | 7.683 | 6.336 | 4.792

CC(C)CCO + CCCCOC(C)=O
308 K, 101 kPa
Conditions | viscosity [mPa·s]
x2 = 0.0998 | 2.631
x2 = 0.2003 | 2.091
x2 = 0.3001 | 1.715
x2 = 0.3999 | 1.418
x2 = 0.4998 | 1.221
x2 = 0.5999 | 1.019
x2 = 0.6997 | 0.917
x2 = 0.8002 | 0.811
x2 = 0.9002 | 0.734

CCOCCO + CCCCCCCCCC
viscosity [mPa·s], 101.33 kPa
Conditions | x1 = 0.0958 | x1 = 0.2018 | x1 = 0.2985 | x1 = 0.4011 | x1 = 0.4984 | x1 = 0.5978 | x1 = 0.6989 | x1 = 0.7994 | x1 = 0.8984
298.15 K | 0.828 | 0.851 | 0.905 | 0.962 | 1.046 | 1.128 | 1.223 | 1.345 | 1.512
303.15 K | 0.767 | 0.785 | 0.827 | 0.879 | 0.946 | 1.016 | 1.108 | 1.209 | 1.354
308.15 K | 0.709 | 0.725 | 0.766 | 0.806 | 0.866 | 0.929 | 1.001 | 1.096 | 1.223
313.15 K | 0.661 | 0.681 | 0.705 | 0.744 | 0.797 | 0.844 | 0.921 | 0.992 | 1.103

CC(C)CCO + O
Conditions | viscosity [mPa·s]
293.15 K, 101.33 kPa, x1 = 0.0021 | 1.074
293.15 K, 101.33 kPa, x1 = 0.0042 | 1.123
293.15 K, 101.33 kPa, x1 = 0.0052 | 1.47
298.15 K, 101 kPa, x2 = 0.0019 | 3.738
298.15 K, 101 kPa, x2 = 0.0485 | 3.634
298.15 K, 101 kPa, x2 = 0.091 | 3.563
298.15 K, 101 kPa, x2 = 0.1325 | 3.518
298.15 K, 101 kPa, x2 = 0.1769 | 3.49
298.15 K, 101 kPa, x2 = 0.2065 | 3.482
298.15 K, 101 kPa, x2 = 0.2272 | 3.48
298.15 K, 101 kPa, x2 = 0.2538 | 3.486
298.15 K, 101 kPa, x2 = 0.3132 | 3.518
303.15 K, 101.33 kPa, x1 = 0.0021 | 0.851
303.15 K, 101.33 kPa, x1 = 0.0042 | 0.894
303.15 K, 101.33 kPa, x1 = 0.0052 | 0.907
313.15 K, 101.33 kPa, x1 = 0.0021 | 0.693
313.15 K, 101.33 kPa, x1 = 0.0042 | 0.721
323.15 K, 101.33 kPa, x1 = 0.0021 | 0.59
323.15 K, 101.33 kPa, x1 = 0.0042 | 0.617

N#C[C-](C#N)C#N.OCCC[n+]1ccccc1 + c1ccsc1
101 kPa
Conditions | viscosity [mPa·s]
298.15 K, x1 = 0.5955 | 36.55
313.15 K, x1 = 0.9377 | 39.55

CCOCCO + O=[N+]([O-])c1ccccc1
298.15 K, 101 kPa
Conditions | viscosity [mPa·s]
x2 = 0.0476 | 1.852
x2 = 0.1095 | 1.858
x2 = 0.2104 | 1.873
x2 = 0.3134 | 1.893
x2 = 0.4103 | 1.916
x2 = 0.4566 | 1.925
x2 = 0.5011 | 1.932
x2 = 0.5459 | 1.936
x2 = 0.6004 | 1.94
x2 = 0.7008 | 1.937
x2 = 0.8017 | 1.921
x2 = 0.8989 | 1.887
x2 = 0.9525 | 1.853

Cn1cc[n+](CCCC#N)c1.O=S(=O)([O-])C(F)(F)F + CC#N
Conditions | viscosity [mPa·s]
298.15 K, 101 kPa, x1 = 0.7996 | 306.5

CNC(C)=O + CS(C)=O
313 K, 101 kPa
Conditions | viscosity [mPa·s]
x2 = 0.0743 | 2.725
x2 = 0.177 | 2.42
x2 = 0.2759 | 2.198
x2 = 0.3801 | 2.01
x2 = 0.4764 | 1.888
x2 = 0.5737 | 1.78
x2 = 0.6725 | 1.696
x2 = 0.7647 | 1.626
x2 = 0.8734 | 1.567
x2 = 0.9723 | 1.522

CCOCCO + C1COCO1
298.15 K, 101 kPa
Conditions | viscosity [mPa·s]
x2 = 0.1191 | 1.605
x2 = 0.2332 | 1.379
x2 = 0.3427 | 1.187
x2 = 0.4478 | 1.03
x2 = 0.5488 | 0.9124
x2 = 0.646 | 0.8144
x2 = 0.7395 | 0.7365
x2 = 0.8295 | 0.6706
x2 = 0.9163 | 0.6129

CNC(C)=O + Cc1ccccc1
308.15 K, 101.33 kPa
Conditions | viscosity [mPa·s]
x1 = 0.0366 | 0.4848
x1 = 0.1983 | 0.7283
x1 = 0.3436 | 1.012
x1 = 0.4518 | 1.26
x1 = 0.5799 | 1.582
x1 = 0.6965 | 1.936
x1 = 0.7868 | 2.28
x1 = 0.8882 | 2.718
x2 = 0.0175 | 3.188

CCOCCO + O=C1CCCO1
303.15 K, 101.33 kPa
Conditions | viscosity [mPa·s]
x1 = 0.0345 | 1.722
x1 = 0.0509 | 1.708
x1 = 0.0767 | 1.687
x1 = 0.1125 | 1.658
x1 = 0.2033 | 1.603
x1 = 0.3137 | 1.561
x1 = 0.4404 | 1.544
x1 = 0.5421 | 1.538
x1 = 0.6504 | 1.535
x1 = 0.8807 | 1.541
x1 = 0.9372 | 1.538
x1 = 0.9693 | 1.553

CC(C)CCO + CC(C)O
298.15 K, 101 kPa
Conditions | viscosity [mPa·s]
x1 = 0.0665 | 2.158
x1 = 0.095 | 2.195
x1 = 0.1475 | 2.277
x1 = 0.1504 | 2.279
x1 = 0.2352 | 2.411
x1 = 0.2364 | 2.41
x1 = 0.3228 | 2.562
x1 = 0.3304 | 2.572
x1 = 0.4092 | 2.707
x1 = 0.4193 | 2.736
x1 = 0.5069 | 2.896
x1 = 0.5352 | 2.948
x1 = 0.6126 | 3.093
x1 = 0.6388 | 3.125
x1 = 0.7326 | 3.271
x1 = 0.7853 | 3.365
x1 = 0.8525 | 3.477
x1 = 0.9466 | 3.651

CC[N+](CC)(CC)CC.[Br-] + O
298.15 K, 101 kPa
Conditions | viscosity [mPa·s]
x1 = 0.0009 | 0.8894
x1 = 0.0089 | 1.059
x1 = 0.0177 | 1.314
x1 = 0.0348 | 2.397

CNC(C)=O + CC(C)(C)O
303.15 K, 101 kPa
Conditions | viscosity [mPa·s]
x1 = 0.0809 | 4.253
x1 = 0.1017 | 4.365
x1 = 0.2071 | 4.448
x1 = 0.3102 | 4.22
x1 = 0.4103 | 4.026
x1 = 0.5002 | 3.864
x1 = 0.6021 | 3.776
x1 = 0.7095 | 3.752
x1 = 0.8039 | 3.747
x1 = 0.9007 | 3.778

CC(C)CCO + CN1CCCC1=O
298.15 K, 101 kPa
Conditions | viscosity [mPa·s]
x2 = 0.0595 | 3.229
x2 = 0.1189 | 2.874
x2 = 0.1501 | 2.732
x2 = 0.2008 | 2.549
x2 = 0.2536 | 2.402
x2 = 0.2994 | 2.298
x2 = 0.3506 | 2.205
x2 = 0.4002 | 2.132
x2 = 0.4519 | 2.06
x2 = 0.5025 | 2.015
x2 = 0.5513 | 1.97
x2 = 0.6039 | 1.926
x2 = 0.6515 | 1.889
x2 = 0.7026 | 1.855
x2 = 0.7505 | 1.823
x2 = 0.8015 | 1.791
x2 = 0.8546 | 1.763
x2 = 0.9046 | 1.739
x2 = 0.9562 | 1.715

CC[N+](CC)(CC)CC.[Br-] + OCCO
viscosity [mPa·s], 100 kPa
Conditions | 298 K | 298.15 K | 308 K | 318 K
x1 = 0.333 | – | 37.5 | – | –
x2 = 0.75 | 28 | – | 18.5 | 13
